Reference: ChEMBL document CHEMBL1201862, “PubChem BioAssay data set” (2004)
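1) Cells in 96-well plates. 2) Compound, 48 h, 5 concentrations. 3) Linear interpolation between surrounding doses. 4) Unreached endpoint = highest concentration. At the GI50, growth is halved.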 Activity calls are given as the source filed them. No stated cut-off is given here; in the data, active = GI50 up to about 1.1 µM and inactive = higher.

Assays:
Experiment in all cases: growth of human tumour cells (NCI), 48 h
[1] = tested on: 786-0
[2] = tested on: A498
[3] = tested on: A549
[4] = tested on: ACHN
[5] = tested on: CAKI-1
[6] = tested on: CCRF-CEM
[7] = tested on: DLD-1
[8] = tested on: DMS-114
[9] = tested on: EKVX
[10] = tested on: HCC 2998
[11] = tested on: HCT-116
[12] = tested on: HCT-15
[13] = tested on: HOP-18
[14] = tested on: HOP-62
[15] = tested on: HOP-92
[16] = tested on: HT-29
[17] = tested on: IGROV-1
[18] = tested on: K562
[19] = tested on: KM-20L2
[20] = tested on: KM12
[21] = tested on: LOX IMVI
[22] = tested on: LXFL 529
[23] = tested on: M14
[24] = tested on: M19-MEL
[25] = tested on: MOLT-4
[26] = tested on: Malme-3M
[27] = tested on: NCI-H226
[28] = tested on: NCI-H23
[29] = tested on: NCI-H460
[30] = tested on: NCI-H522
[31] = tested on: OVCAR-3
[32] = tested on: OVCAR-4
[33] = tested on: OVCAR-5
[34] = tested on: OVCAR-8
[35] = tested on: RXF 631
[36] = tested on: SF-268
[37] = tested on: SF-295
[38] = tested on: SF-539
[39] = tested on: SK-MEL-28
[40] = tested on: SK-MEL-2
[41] = tested on: SK-MEL-5
[42] = tested on: SK-OV-3
[43] = tested on: SN12C
[44] = tested on: SNB-75
[45] = tested on: SNB-78
[46] = tested on: SW-620
[47] = tested on: TK-10
[48] = tested on: U-251
[49] = tested on: UACC-257
[50] = tested on: UACC-62
[51] = tested on: UO-31
[52] = tested on: COLO 205
[53] = tested on: DMS-273
[54] = tested on: RPMI-8226
[55] = tested on: RXF 393
[56] = tested on: SNB-19
[57] = tested on: SR
[58] = tested on: XF498

## COc1cc2c(c(O)c1C)C(=O)CC(c1ccccc1)O2 (stereo not given)
[1]
  GI50: 59.7 µM (inactive)
[2]
  GI50: 64.1 µM (inactive)
[3]
  GI50: 56.6 µM (inactive)
[4]
  GI50: 43.7 µM (inactive)
[5]
  GI50: 94.8 µM (inactive)
[6]
  GI50: > 10 µM (inactive)
[7]
  GI50: 55.2 µM (inactive)
[8]
  GI50: 50.7 µM (inactive)
[9]
  GI50: 89.3 µM (inactive)
[10]
  GI50: 79.8 µM (inactive)
[11]
  GI50: 31.7 µM (inactive)
[12]
  GI50: 66.4 µM
[13]
  GI50: 61 µM (inactive)
[14]
  GI50: > 100 µM (inactive)
[15]
  GI50: 13.4 µM (inactive)
[16]
  GI50: > 10 µM (inactive)
[17]
  GI50: 61.9 µM (inactive)
[18]
  GI50: 50.2 µM (inactive)
[19]
  GI50: 15.1 µM (inactive)
[20]
  GI50: 62.8 µM (inactive)
[21]
  GI50: > 10 µM (inactive)
[22]
  GI50: 56.2 µM (inactive)
[23]
  GI50: > 10 µM (inactive)
[24]
  GI50: 45.8 µM (inactive)
[25]
  GI50: 32.8 µM (inactive)
[26]
  GI50: 91.4 µM (inactive)
[27]
  GI50: 18.4 µM (inactive)
[28]
  GI50: 22.4 µM (inactive)
[29]
  GI50: > 10 µM (inactive)
[30]
  GI50: 50.2 µM (inactive)
[31]
  GI50: 48.1 µM (inactive)
[32]
  GI50: > 10 µM (inactive)
[33]
  GI50: 39.1 µM (inactive)
[34]
  GI50: > 100 µM (inactive)
[35]
  GI50: 41.4 µM (inactive)
[36]
  GI50: > 100 µM (inactive)
[37]
  GI50: > 10 µM (inactive)
[38]
  GI50: > 100 µM (inactive)
[39]
  GI50: > 100 µM (inactive)
[40]
  GI50: 24.9 µM (inactive)
[41]
  GI50: 18.2 µM (inactive)
[42]
  GI50: 36.2 µM (inactive)
[43]
  GI50: 37.5 µM (inactive)
[44]
  GI50: 28.8 µM (inactive)
[45]
  GI50: 55.7 µM (inactive)
[46]
  GI50: > 10 µM (inactive)
[47]
  GI50: 32.2 µM (inactive)
[48]
  GI50: 56.4 µM (inactive)
[49]
  GI50: 38.5 µM (inactive)
[50]
  GI50: 47.9 µM (inactive)
[51]
  GI50: 23 µM (inactive)

## O=C1CCC2(c3ccccc3)OCC([C@@H](O)c3ccccc3)N12 (stereo not given in full)
[1]
  GI50: > 100 µM (inactive)
[2]
  GI50: > 100 µM (inactive)
[3]
  GI50: > 100 µM (inactive)
[4]
  GI50: > 100 µM (inactive)
[5]
  GI50: > 100 µM (inactive)
[6]
  GI50: > 100 µM (inactive)
[52]
  GI50: > 100 µM (inactive)
[7]
  GI50: > 100 µM (inactive)
[8]
  GI50: > 100 µM (inactive)
[53]
  GI50: > 100 µM (inactive)
[9]
  GI50: > 100 µM (inactive)
[11]
  GI50: > 100 µM (inactive)
[12]
  GI50: > 100 µM
[13]
  GI50: > 100 µM (inactive)
[14]
  GI50: > 100 µM (inactive)
[15]
  GI50: > 100 µM (inactive)
[16]
  GI50: > 100 µM (inactive)
[17]
  GI50: > 100 µM (inactive)
[18]
  GI50: > 100 µM (inactive)
[19]
  GI50: > 100 µM (inactive)
[20]
  GI50: > 100 µM (inactive)
[21]
  GI50: > 100 µM (inactive)
[24]
  GI50: > 100 µM (inactive)
[26]
  GI50: > 100 µM (inactive)
[28]
  GI50: > 100 µM (inactive)
[29]
  GI50: > 100 µM (inactive)
[31]
  GI50: > 100 µM (inactive)
[32]
  GI50: > 100 µM (inactive)
[33]
  GI50: > 100 µM (inactive)
[34]
  GI50: > 100 µM (inactive)
[54]
  GI50: > 100 µM (inactive)
[55]
  GI50: > 100 µM (inactive)
[36]
  GI50: > 100 µM (inactive)
[37]
  GI50: > 100 µM (inactive)
[38]
  GI50: > 100 µM (inactive)
[39]
  GI50: > 100 µM (inactive)
[40]
  GI50: > 100 µM (inactive)
[41]
  GI50: > 100 µM (inactive)
[43]
  GI50: > 100 µM (inactive)
[56]
  GI50: > 100 µM (inactive)
[44]
  GI50: > 100 µM (inactive)
[45]
  GI50: > 100 µM (inactive)
[57]
  GI50: > 100 µM (inactive)
[46]
  GI50: > 100 µM (inactive)
[47]
  GI50: > 100 µM (inactive)
[48]
  GI50: > 100 µM (inactive)
[49]
  GI50: > 100 µM (inactive)
[50]
  GI50: > 100 µM (inactive)
[58]
  GI50: > 100 µM (inactive)
